From patent US7476514B2, “Method for monitoring the immune response and predicting clinical outcomes in transplant recipients” (Cylex, Inc., priority 2002, dated 2009)

Test system: CD4 cells
Test: Cylex Immune Cell Function Assay (ImmuKnow): PHA-stimulated intracellular ATP in CD4 cells from whole blood of treated transplant patient
Assay type: cell-based, human
Method: Whole blood (100 μl of a 1:4 dilution) was tested in quadruplicate with or without phytohemagglutinin (PHA) (2.5 μg/mL) overnight (15-18 hours in a CO2 incubator at 37° C.). Anti-human CD4 monoclonal antibody coated magnetic particles (Dynal Biotech A.S.A., Oslo, Norway) were added to immunoselect CD4 cells from both the stimulated and non-stimulated wells. After washing the CD4 cells selected on a strong magnet (Cylex™ Cat. 1050) a lysing reagent was added to release intracellular ATP. A luciferin/luciferase mixture was then added to the cell lysate. Within 30 minutes after addition of enzyme, the bioluminescent product was measured in a luminometer (PHL Mediators, Austria or Berthold, Maryville, Tenn., or Turner Designs, Sunnyvale, Calif.) (See FIG. 1). The amount of light emitted (emission maximum 562 nm) was compared to a standard curve generated with ATP calibrators (0, 1, 10, 100, 1000 ng/mL). The concentration of ATP (ng/mL) in each sample was then calculated from the calibration curve using an Excel-based program provided by Cylex™.
(§1) To perform the assay, 200 μl of sodium heparin anticoagulated whole blood was diluted, aliquoted into wells of a 96-well microtiter plate and stimulated overnight with PHA. CD4+ cells were then selected using antibody-coated magnetic particles, washed and lysed to release intracellular ATP. The intensity of the patient's immune response was quantified by measuring the amount of intracellular ATP produced in response to stimulation.
as §1, with “Cylex™ Immune Cell Function Assay,” for “assay,”, “stimulation. Acute rejection was diagnosed by histopathologic studies of random and endoscopically guided multiple mucosal biopsies. […]” for “stimulation.”

Row | Molecule | change of immune response (ATP) (Case Study 2, Solumedrol re-initiated after week 43, read at week 44) | immune response (ATP) (Case Study 2, multivisceral transplant recipient with acute rejection, week 39, after initial infusion of OKT3/FK and Solumedrol) [ng/mL] | immune response (ATP) (Case Study 2, after additional three-day course of OKT3) [ng/mL]
1 | C[C@H]1C[C@@H]2[C@H]([C@@H](O)C[C@@]3(C)[C@H]2CC[C@]3(O)C(=O)COC(=O)CCC(=O)[O-])[C@@]2(C)C=CC(=O)C=C12.[Na+] [Solumedrol, methylprednisolone] | dropped significantly |  | 
2 | OKT3: monoclonal antibody OKT3 (anti-CD3), antilymphocyte drug |  | 954 | 582
